± gives the expanded uncertainty stated by the source.
Test: xn = mol fraction of the nth substance listed
Details: 101 kPa, Liquid

For BrCCBr [1,2-dibromoethane] + CCCCCCC, the speed of sound (292.6 K, x1 = 0.6005) was 996.77 ± 2.3 m/s, the speed of sound (292.62 K, x1 = 0.2) was 1079.5 ± 2.4 m/s and the speed of sound (292.64 K, x1 = 0.1024) was 1112.1 ± 2.4 m/s. For the same compound, the speed of sound (292.64 K, x1 = 0.2986) was 1050.8 ± 2.3 m/s, the speed of sound (292.66 K, x1 = 0.6997) was 989.87 ± 2.3 m/s and the speed of sound (292.68 K, x1 = 0.4002) was 1027.2 ± 2.3 m/s. The speed of sound (292.68 K, x1 = 0.8004) was 989.25 ± 2.3 m/s, the speed of sound (292.7 K, x1 = 0.4996) was 1009.4 ± 2.3 m/s and the speed of sound (292.7 K, x1 = 0.9061) was 995.84 ± 2.4 m/s. It also gave a speed of sound (292.84 K, x1 = 1) of 1007.5 ± 2.4 m/s, a mass density (293.15 K, x1 = 0.1018) of 776.01 ± 0.52 kg/m3 and a mass density (293.15 K, x1 = 0.2052) of 878.46 ± 0.43 kg/m3. It also gave a mass density (293.15 K, x1 = 0.2931) of 973.9 ± 0.43 kg/m3, a mass density (293.15 K, x1 = 0.3754) of 1070.54 ± 0.56 kg/m3 and a mass density (293.15 K, x1 = 0.3919) of 1091.09 ± 0.6 kg/m3. For the same compound, the mass density (293.15 K, x1 = 0.5009) was 1234.71 ± 0.95 kg/m3, the mass density (293.15 K, x1 = 0.5993) was 1379.31 ± 1.1 kg/m3 and the mass density (293.15 K, x1 = 0.6916) was 1530.51 ± 1.4 kg/m3. The mass density (293.15 K, x1 = 0.7886) was 1707.97 ± 1.7 kg/m3, the mass density (293.15 K, x1 = 0.8919) was 1922 ± 2.2 kg/m3 and the mass density (293.15 K, x1 = 1) was 2178.77 ± 2.9 kg/m3. For the same compound, the mass density (298.15 K, x1 = 0.1018) was 771.16 ± 0.51 kg/m3, the mass density (298.15 K, x1 = 0.2052) was 872.98 ± 0.42 kg/m3 and the mass density (298.15 K, x1 = 0.2931) was 968 ± 0.41 kg/m3. It also gave a mass density (298.15 K, x1 = 0.3754) of 1064.3 ± 0.56 kg/m3, a mass density (298.15 K, x1 = 0.3919) of 1084.74 ± 0.59 kg/m3 and a mass density (298.15 K, x1 = 0.5009) of 1227.73 ± 0.92 kg/m3. It also gave a mass density (298.15 K, x1 = 0.5993) of 1372.04 ± 1.1 kg/m3, a mass density (298.15 K, x1 = 0.6916) of 1522.49 ± 1.3 kg/m3 and a mass density (298.15 K, x1 = 0.7886) of 1699.34 ± 1.7 kg/m3. The mass density (298.15 K, x1 = 0.8919) was 1912.55 ± 2.2 kg/m3, the mass density (298.15 K, x1 = 1) was 2168.41 ± 2.9 kg/m3 and the speed of sound (298.56 K, x1 = 0.1024) was 1088 ± 2.4 m/s. For the same compound, the speed of sound (298.56 K, x1 = 0.9061) was 980 ± 2.3 m/s, the speed of sound (298.58 K, x1 = 0.2) was 1056.5 ± 2.3 m/s and the speed of sound (298.59 K, x1 = 0.4996) was 990.17 ± 2.3 m/s. The speed of sound (298.59 K, x1 = 0.6005) was 978.03 ± 2.3 m/s, the speed of sound (298.6 K, x1 = 0.4002) was 1006.7 ± 2.3 m/s and the speed of sound (298.6 K, x1 = 0.6997) was 972.29 ± 2.3 m/s. It also gave a speed of sound (298.68 K, x1 = 0.8004) of 972.17 ± 2.3 m/s, a speed of sound (298.69 K, x1 = 0.2986) of 1028.6 ± 2.3 m/s and a speed of sound (299.17 K, x1 = 1) of 991.14 ± 2.4 m/s. It also gave a mass density (303.15 K, x1 = 0.1018) of 766.4 ± 0.52 kg/m3, a mass density (303.15 K, x1 = 0.2052) of 867.72 ± 0.42 kg/m3 and a mass density (303.15 K, x1 = 0.2931) of 962.23 ± 0.41 kg/m3. The mass density (303.15 K, x1 = 0.3754) was 1058 ± 0.55 kg/m3, the mass density (303.15 K, x1 = 0.3919) was 1078.36 ± 0.59 kg/m3 and the mass density (303.15 K, x1 = 0.5009) was 1220.93 ± 0.91 kg/m3. For the same compound, the mass density (303.15 K, x1 = 0.5993) was 1364.69 ± 1.1 kg/m3, the mass density (303.15 K, x1 = 0.6916) was 1514.35 ± 1.3 kg/m3 and the mass density (303.15 K, x1 = 0.7886) was 1690.56 ± 1.6 kg/m3. It also gave a mass density (303.15 K, x1 = 0.8919) of 1903.13 ± 2.2 kg/m3, a mass density (303.15 K, x1 = 1) of 2157.94 ± 2.9 kg/m3 and a speed of sound (303.37 K, x1 = 1) of 980.18 ± 2.4 m/s. For the same compound, the speed of sound (303.54 K, x1 = 0.4002) was 989.74 ± 2.2 m/s, the speed of sound (303.57 K, x1 = 0.9061) was 966.53 ± 2.3 m/s and the speed of sound (303.59 K, x1 = 0.1024) was 1067.7 ± 2.3 m/s. For the same compound, the speed of sound (303.61 K, x1 = 0.2) was 1037.2 ± 2.3 m/s, the speed of sound (303.61 K, x1 = 0.6997) was 957.6 ± 2.3 m/s and the speed of sound (303.62 K, x1 = 0.6005) was 962.51 ± 2.2 m/s. The speed of sound (303.65 K, x1 = 0.2986) was 1010.6 ± 2.3 m/s, the speed of sound (303.66 K, x1 = 0.4996) was 973.72 ± 2.2 m/s and the speed of sound (303.78 K, x1 = 0.8004) was 957.87 ± 2.3 m/s. It also gave a mass density (308.15 K, x1 = 0.1018) of 761.38 ± 0.52 kg/m3, a mass density (308.15 K, x1 = 0.2052) of 862.14 ± 0.43 kg/m3 and a mass density (308.15 K, x1 = 0.2931) of 956.31 ± 0.42 kg/m3. For the same compound, the mass density (308.15 K, x1 = 0.3754) was 1051.8 ± 0.54 kg/m3, the mass density (308.15 K, x1 = 0.3919) was 1071.93 ± 0.58 kg/m3 and the mass density (308.15 K, x1 = 0.5009) was 1213.97 ± 0.9 kg/m3. The mass density (308.15 K, x1 = 0.5993) was 1357.19 ± 1.1 kg/m3, the mass density (308.15 K, x1 = 0.6916) was 1506.3 ± 1.3 kg/m3 and the mass density (308.15 K, x1 = 0.7886) was 1681.76 ± 1.6 kg/m3. The mass density (308.15 K, x1 = 0.8919) was 1893.55 ± 2.1 kg/m3, the mass density (308.15 K, x1 = 1) was 2147.47 ± 2.8 kg/m3 and the speed of sound (308.44 K, x1 = 0.9061) was 953.47 ± 2.3 m/s. For the same compound, the speed of sound (308.57 K, x1 = 0.6997) was 943.03 ± 2.2 m/s, the speed of sound (308.58 K, x1 = 0.4002) was 972.63 ± 2.2 m/s and the speed of sound (308.59 K, x1 = 0.6005) was 947.22 ± 2.2 m/s. It also gave a speed of sound (308.59 K, x1 = 0.8004) of 944.46 ± 2.3 m/s, a speed of sound (308.62 K, x1 = 0.1024) of 1047.4 ± 2.3 m/s and a speed of sound (308.62 K, x1 = 0.2986) of 992.63 ± 2.2 m/s. For the same compound, the speed of sound (308.65 K, x1 = 0.2) was 1018 ± 2.3 m/s, the speed of sound (308.75 K, x1 = 1) was 966.56 ± 2.4 m/s and the speed of sound (309.57 K, x1 = 0.4996) was 954.55 ± 2.2 m/s. For the same compound, the mass density (313.15 K, x1 = 0.1018) was 756.39 ± 0.52 kg/m3, the mass density (313.15 K, x1 = 0.2052) was 856.68 ± 0.42 kg/m3 and the mass density (313.15 K, x1 = 0.2931) was 950.37 ± 0.41 kg/m3. For the same compound, the mass density (313.15 K, x1 = 0.3754) was 1045.35 ± 0.54 kg/m3, the mass density (313.15 K, x1 = 0.3919) was 1065.57 ± 0.57 kg/m3 and the mass density (313.15 K, x1 = 0.5009) was 1207.14 ± 0.88 kg/m3. The mass density (313.15 K, x1 = 0.5993) was 1349.51 ± 1 kg/m3, the mass density (313.15 K, x1 = 0.6916) was 1498.2 ± 1.3 kg/m3 and the mass density (313.15 K, x1 = 0.7886) was 1673.14 ± 1.6 kg/m3. The mass density (313.15 K, x1 = 0.8919) was 1884.12 ± 2.1 kg/m3, the mass density (313.15 K, x1 = 1) was 2136.96 ± 2.8 kg/m3 and the speed of sound (314.45 K, x1 = 1) was 952 ± 2.3 m/s. For the same compound, the speed of sound (314.52 K, x1 = 0.9061) was 937.35 ± 2.3 m/s, the speed of sound (314.55 K, x1 = 0.6997) was 925.53 ± 2.2 m/s and the speed of sound (314.56 K, x1 = 0.2) was 995.72 ± 2.2 m/s. For the same compound, the speed of sound (314.58 K, x1 = 0.4002) was 952.25 ± 2.2 m/s, the speed of sound (314.58 K, x1 = 0.8004) was 927.74 ± 2.2 m/s and the speed of sound (314.59 K, x1 = 0.1024) was 1023.6 ± 2.3 m/s. For the same compound, the speed of sound (314.59 K, x1 = 0.4996) was 938.54 ± 2.2 m/s, the speed of sound (314.59 K, x1 = 0.6005) was 928.96 ± 2.2 m/s and the speed of sound (314.61 K, x1 = 0.2986) was 971.18 ± 2.2 m/s.

Reference: the NIST ThermoML archive (doi:10.1021/je0603325)
